According to patent publication US8232401B2 (Japan Tobacco Inc., priority 2002, dated 2012):
pIC50: −log10 of the molar value.

Experiments:
[1] = target: T1, HIV integrase (Human immunodeficiency virus type 1 group M subtype B, UniProt P12497, F1332H); assay: Determination of enzyme (HIV integrase) inhibitory activity (strand transfer, microtiter plate, absorbance at 450 nm); type: biochemical, HIV (Human Immunodeficiency Virus (type 1)); settings: recombinant HIV integrase (F185H) expressed in E. coli; donor DNA on streptavidin plate, digoxigenin target DNA; 37° C.
T1 construct: HIV integrase full length gene; made in house; host or cells: Escherichia coli BL21(DE3)

SMILES	melting point	pIC50 [1]
O=C(O)c1cn(CCO)c2ccc(Cc3cccc(Cl)c3Cl)cc2c1=O [Example 1-1, 6-(2,3-dichlorobenzyl)-1,4-dihydro-1-(2-hydroxyethyl)-4-oxo-3-quinolinecarboxylic acid]	247 to 249 °C	7.54
CC(C)C[C@@H](CO)n1cc(C(=O)O)c(=O)c2cc(Cc3cccc(Cl)c3F)cc(OC(C)C)c21 [Example 4-25, (S)-6-(3-Chloro-2-fluorobenzyl)-1-(1-hydroxymethyl-3-methylbutyl)-8-isopropyloxy-4-oxo-1,4-dihydroquinoline-3-carboxylic acid]	–	8.72
CC(C)Oc1cc(Cc2cccc(Cl)c2F)cc2c(=O)c(C(=O)O)cn([C@H](CO)C(C)(C)C)c12 [Example 4-26, (S)-6-(3-Chloro-2-fluorobenzyl)-[2,2-dimethyl-1-(hydroxymethyl)propyl]-8-isopropyloxy-4-oxo-1,4-dihydroquinoline-3-carboxylic acid]	–	8.82
CC[C@H](C)[C@@H](CO)n1cc(C(=O)O)c(=O)c2cc(Cc3cccc(Cl)c3F)c(OC)cc21 [Example 4-27, 6-(3-Chloro-2-fluorobenzyl)-1-((1S,2S)-1-hydroxymethyl-2-methylbutyl)-7-methoxy-4-oxo-1,4-dihydroquinoline-3-carboxylic acid]	–	8.54
CCOc1cc2c(cc1Cc1cccc(Cl)c1F)c(=O)c(C(=O)O)cn2[C@H](CO)[C@@H](C)CC [Example 4-28, 6-(3-Chloro-2-fluorobenzyl)-7-ethoxy-1-((1S,2S)-1-hydroxymethyl-2-methylbutyl)-4-oxo-1,4-dihydroquinoline-3-carboxylic acid]	–	8.57
CC[C@@H](CO)n1cc(C(=O)O)c(=O)c2cc(Cc3cccc(Cl)c3F)c(SC)cc21 [Example 4-29, (S)-6-(3-Chloro-2-fluorobenzyl)-1-[1-(hydroxymethyl)propyl]-7-methylsulfanyl-4-oxo-1,4-dihydroquinoline-3-carboxylic acid]	–	8.35
CCOc1cc2c(cc1Cc1cccc(Cl)c1F)c(=O)c(C(=O)O)cn2[C@H](CO)C(C)C [Example 4-30, (S)-6-(3-Chloro-2-fluorobenzyl)-7-ethoxy-1-(1-hydroxymethyl-2-methylpropyl)-4-oxo-1,4-dihydroquinoline-3-carboxylic acid]	–	8.54
CCOc1cc2c(cc1Cc1cccc(Cl)c1F)c(=O)c(C(=O)O)cn2[C@H](CO)C(C)(C)C [Example 4-31, (S)-6-(3-Chloro-2-fluorobenzyl)-7-ethoxy-1-[2,2-dimethyl-1-(hydroxymethyl)propyl]-4-oxo-1,4-dihydroquinoline-3-carboxylic acid]	–	8.68
COc1cc2c(cc1Cc1cccc(Cl)c1F)c(=O)c(C(=O)O)cn2[C@H](CO)C(C)(C)C [Example 4-33, (S)-6-(3-Chloro-2-fluorobenzyl)-1-[2,2-dimethyl-1-(hydroxymethyl)propyl]-7-methoxy-4-oxo-1,4-dihydroquinoline-3-carboxylic acid]	–	8.70
COc1cc(Cc2cccc(Cl)c2F)cc2c(=O)c(C(=O)O)cn([C@H](CO)C(C)(C)C)c12 [Example 4-34, (S)-6-(3-Chloro-2-fluorobenzyl)-1-[2,2-dimethyl-1-(hydroxymethyl)propyl]-8-methoxy-4-oxo-1,4-dihydroquinoline-3-carboxylic acid]	–	8.41
CCC[C@@H](CO)n1cc(C(=O)O)c(=O)c2cc(Cc3cccc(Cl)c3F)c(OC(C)C)cc21 [Example 4-35]	–	8.37
CCC[C@@H](CO)n1cc(C(=O)O)c(=O)c2cc(Cc3cccc(Cl)c3F)c(OCC)cc21 [Example 4-36, (S)-6-(3-Chloro-2-fluorobenzyl)-7-ethoxy-1-[1-(hydroxymethyl)butyl]-4-oxo-1,4-dihydroquinoline-3-carboxylic acid]	–	8.43
CCOc1cc(Cc2cccc(Cl)c2F)cc2c(=O)c(C(=O)O)cn([C@H](CO)C(C)(C)C)c12 [Example 4-37, (S)-6-(3-Chloro-2-fluorobenzyl)-8-ethoxy-1-[2,2-dimethyl-1-(hydroxymethyl)propyl]-4-oxo-1,4-dihydroquinoline-3-carboxylic acid]	–	8.72
CCC[C@@H](CO)n1cc(C(=O)O)c(=O)c2cc(Cc3cccc(Cl)c3F)c(OC)cc21 [Example 4-38, (S)-6-(3-Chloro-2-fluorobenzyl)-1-[1-(hydroxymethyl)butyl]-7-methoxy-4-oxo-1,4-dihydroquinoline-3-carboxylic acid]	–	8.48
CC[C@H](C)[C@@H](CO)n1cc(C(=O)O)c(=O)c2cc(Cc3cccc(Cl)c3F)c(OC(C)C)cc21 [Example 4-39, 6-(3-Chloro-2-fluorobenzyl)-1-((1S,2S)-1-hydroxymethyl-2-methylbutyl)-7-isopropyloxy-4-oxo-1,4-dihydroquinoline-3-carboxylic acid]	–	8.39
CC(C)Oc1cc2c(cc1Cc1cccc(Cl)c1F)c(=O)c(C(=O)O)cn2[C@H](CO)C1CCCCC1 [Example 4-40, (S)-6-(3-Chloro-2-fluorobenzyl)-1-(1-cyclohexyl-2-hydroxyethyl)-7-isopropyloxy-4-oxo-1,4-dihydroquinoline-3-carboxylic acid]	–	8.37
CCOc1cc(Cc2cccc(Cl)c2F)cc2c(=O)c(C(=O)O)cn([C@H](CO)C3CCCCC3)c12 [Example 4-41, (S)-6-(3-Chloro-2-fluorobenzyl)-1-(1-cyclohexyl-2-hydroxyethyl)-8-ethoxy-4-oxo-1,4-dihydroquinoline-3-carboxylic acid]	–	8.64
COc1cc2c(cc1Cc1cccc(Cl)c1F)c(=O)c(C(=O)O)cn2[C@H](CO)C1CCCCC1 [Example 4-42, (S)-6-(3-Chloro-2-fluorobenzyl)-1-(1-cyclohexyl-2-hydroxyethyl)-7-methoxy-4-oxo-1,4-dihydroquinoline-3-carboxylic acid]	–	8.64
CCOc1cc2c(cc1Cc1cccc(Cl)c1F)c(=O)c(C(=O)O)cn2[C@H](CO)C1CCCCC1 [Example 4-43, (S)-6-(3-Chloro-2-fluorobenzyl)-1-(1-cyclohexyl-2-hydroxyethyl)-7-ethoxy-4-oxo-1,4-dihydroquinoline-3-carboxylic acid]	–	8.55
COc1cc(Cc2cccc(Cl)c2F)cc2c(=O)c(C(=O)O)cn([C@H](CO)C3CCCCC3)c12 [Example 4-44, (S)-6-(3-Chloro-2-fluorobenzyl)-1-(1-cyclohexyl-2-hydroxyethyl)-8-methoxy-4-oxo-1,4-dihydroquinoline-3-carboxylic acid]	–	8.62
CCOc1cc(Cc2cccc(Cl)c2F)cc2c(=O)c(C(=O)O)cn([C@H](CO)C(C)C)c12 [Example 4-45, (S)-6-(3-Chloro-2-fluorobenzyl)-8-ethoxy-1-(1-hydroxymethyl-2-methylpropyl)-4-oxo-1,4-dihydroquinoline-3-carboxylic acid]	–	8.47
COc1cc(Cc2cccc(Cl)c2F)cc2c(=O)c(C(=O)O)cn([C@H](CO)C(C)C)c12 [Example 4-46, (S)-6-(3-Chloro-2-fluorobenzyl)-1-(1-hydroxymethyl-2-methylpropyl)-8-methoxy-4-oxo-1,4-dihydroquinoline-3-carboxylic acid]	–	8.30
CCC[C@@H](CO)n1cc(C(=O)O)c(=O)c2cc(Cc3cccc(Cl)c3F)cc(OC(C)C)c21 [Example 4-47, (S)-6-(3-Chloro-2-fluorobenzyl)-1-[1-(hydroxymethyl)butyl]-8-isopropyloxy-4-oxo-1,4-dihydroquinoline-3-carboxylic acid]	–	8.64
CCC[C@@H](CO)n1cc(C(=O)O)c(=O)c2cc(Cc3cccc(Cl)c3F)cc(OCC)c21 [Example 4-48, (S)-6-(3-Chloro-2-fluorobenzyl)-8-ethoxy-1-[1-(hydroxymethyl)butyl]-4-oxo-1,4-dihydroquinoline-3-carboxylic acid]	–	8.52
CCC[C@@H](CO)n1cc(C(=O)O)c(=O)c2cc(Cc3cccc(Cl)c3F)cc(OC)c21 [Example 4-49, (S)-6-(3-Chloro-2-fluorobenzyl)-1-[1-(hydroxymethyl)butyl]-8-methoxy-4-oxo-1,4-dihydroquinoline-3-carboxylic acid]	–	8.24
CC(C)Oc1cc(Cc2cccc(Cl)c2F)cc2c(=O)c(C(=O)O)cn([C@H](CO)C3CCCCC3)c12 [Example 4-50, (S)-6-(3-Chloro-2-fluorobenzyl)-1-(1-cyclohexyl-2-hydroxyethyl)-8-isopropyloxy-4-oxo-1,4-dihydroquinoline-3-carboxylic acid]	–	8.51
